The source of these data is patent publication US20240360194A1, “New Peptides as Potent and Selective GIP Receptor Agonists” (Sanofi, priority 2021, published 2024).

SMILES strings stand for the structures. Values after ≈ are worked out from the molar mass of the structure shown. Numbered stars: 1 amine (or outer) side, 2 acyl side, 3 side chain; on linkers, the order of the positions; unused ones are H or OH. Square brackets hold non-standard residues; d marks the D form. Side chains are listed from the residue outwards. Peptide text beside a SMILES is read from it. * marks the point of attachment. C18 diacid = O=C(O)CCCCCCCCCCCCCCCCC(=O)*; γGlu = O=C(O)[C@H](CCC(=O)[*:2])N[*:1]; dIva = CC[C@@](C)(N)C(=O)O; AEEA = NCCOCCOCC(=O)O; Aib = CC(C)(N)C(=O)O

The nature of data set [1]: Solubility assessment (UHPLC-UV of supernatant, target 10 mg/ml). The format is physicochemical. On the procedure:
Prior to the solubility measurement of a peptide batch, its purity was determined through UHPLC/MS.
Therefore, solutions from solid samples were prepared in a buffer system with a concentration of 10 mg/ml compound based on the previously determined % purity: • Solubility buffer system A) 100 mM phosphate buffer pH 7.4 • Solubility buffer system B) 8 mM phosphate buffer pH 7.4, 14 mg/ml propylene glycol, 5.5 mg/ml phenol • Solubility buffer system C) 100 mM phosphate buffer pH 7.4, 2.7 mg/ml m-cresol
UHPLC-UV was performed after 1 h of gentle agitation and storage at 5° C. overnight (24 h) from the supernatant, which was obtained after 15 min of centrifugation at 2500 RCF (relative centrifugal acceleration).
The different UV extinction coefficients of sample and reference peptide were calculated based on the different amino acid sequences and considered in the concentration calculation.
The analytical method used was Analytical UHPLC Method A.
Peptide samples were prepared in solubility buffer system A or C and solubility was assessed as described in Methods.

In data set [2] the target is T1, human GIP receptor (Homo sapiens, UniProt P48546).
T1 construct: human adipocytes endogenously expressing the human GIP receptor; host or cells: human preadipocytes (Lonza) differentiated to adipocytes
T1 sequence (P48546 22-466): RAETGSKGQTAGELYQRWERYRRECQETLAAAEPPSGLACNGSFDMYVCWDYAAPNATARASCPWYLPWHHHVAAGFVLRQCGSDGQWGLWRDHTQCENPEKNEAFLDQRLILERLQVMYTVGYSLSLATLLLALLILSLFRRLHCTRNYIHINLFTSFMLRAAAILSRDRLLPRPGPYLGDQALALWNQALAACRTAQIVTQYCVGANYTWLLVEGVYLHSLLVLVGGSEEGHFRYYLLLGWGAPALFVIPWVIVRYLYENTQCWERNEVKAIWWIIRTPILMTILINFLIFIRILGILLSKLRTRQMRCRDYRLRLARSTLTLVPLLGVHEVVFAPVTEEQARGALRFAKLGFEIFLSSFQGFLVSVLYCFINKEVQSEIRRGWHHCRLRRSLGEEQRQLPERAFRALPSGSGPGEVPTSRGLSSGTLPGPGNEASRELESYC
Description: In vitro cellular cAMP assay for GIP receptor efficacy (human adipocytes). The format is cell-based. As to conditions: for EC50: read-out: hGIPR EC50; for Emax: read-out: hGIPR Emax. Here is the method: For this, one vial of human preadipocytes (˜10^6 cells; Lonza) was thawed in a T-75 cell culture dish. The cells were cultivated at 37° C., 5% CO2, 95% humidity in Preadipocyte Growth Medium with Supplement Mix from Promo Cell.
After 3 days, the cells were washed with PBS and 1.5 ml Trypsin, incubated for 4 min, then resuspended in medium, centrifugated for 10 min @ 300 rcf RT, resuspended again and distributed to four T-75 cell culture dishes. Again, the cells were cultivated at 37° C., 5% CO2, 95% humidity.
After 5 days, the cells were washed with PBS and 1.5 ml Trypsin, incubated for 4 min, then resuspended in medium, centrifugated for 10 min @ 300 rcf RT, resuspended again and sawn in T-75 dishes (2.5×10^6 cells per dish) in 15 ml Differentiation medium each.
The differentiation medium had the following composition: DMEM (Gibco), Ham's F10 (Gibco), 15 mM HEPES (Gibco), 3% FCS (PAA), 33 μM biotin (Sigma-Aldrich), 17 μM Pantothenate (Sigma-Aldrich), 0.1 μM human insulin (Sigma-Aldrich), 1 μM dexamethason (Sigma-Aldrich), 0.1 μM PPARgamma agonist (#R2408, Sigma-Aldrich), 0.6×Anti-Anti (#15240, ThermoFisher), 200 μM IBMX (AppliChem), and 0.01 μM L-thyroxine (Sigma-Aldrich).
After 6 days of differentiation, 5000 cells per well were dispensed on a 96-well plate (#CLS3694 from Corning®, Sigma-Aldrich). For measurement of cAMP generation, 25 μL of test compound was added to each well of the 96-well plate, followed by incubation for 30 min at room temperature.
The cAMP generated following test compound stimulation was determined using a kit from Cisbio Corp. based on HTRF (Homogenous Time Resolved Fluorescence). The cAMP assay was performed according to manufacturer's instructions (Cisbio).
The cAMP content of cells was determined using a kit from Cisbio Corp. based on HTRF (Homogenous Time Resolved Fluorescence).
After addition of HTRF reagents diluted in lysis buffer (kit components), the plates were incubated for 1 h, followed by measurement of the fluorescence ratio at 665/620 nm.
For orientation: Cyclic AMP is a second messenger, typically raised through Gs and lowered through Gi signalling.

Data set [3] deals with T2, human GIP receptor (hGIPR) (Homo sapiens, UniProt P48546).
T2 sequence (P48546 22-466): T1 sequence (P48546 22-466)
Description: Binding assay, displacement of [125I]GIP from HEK-293 membranes over-expressing GIPR (SPA). As to conditions: [125I]GIP displacement. On the procedure:
(1) Preparation of Membranes from HEK-293 Cells Over-Expressing GIPR or GLP-1R
HEK-293 cells recombinantly over-expressing GIPR or GLP-1R were grown to 50% confluency, washed with warm 1×PBS (Gibco) and detached in HEPES/EDTA-buffer (100 mM HEPES pH 7.5, 5 mM EDTA). Cells were harvested by centrifugation at 4° C. and 3000×g and the pellets were stored at −80° C. until further processing.
After thawing on ice, pellets were resuspended in HEPES/EDTA-buffer and homogenized on ice for 1 min using Ultra-Turray T25. After subsequent sonification the cell debris was removed by centrifugation at 1000×g and 4° C. Supernatants were then ultra-centrifuged at 100000×g and 4° C. under vacuum for 30 min. Pellets were resuspended in HEPES/EDTA/NaCl-buffer (20 mM HEPES, 1 mM EDTA, 150 mM NaCl; add 1 Complete Mini Protease inhibitor cocktail to 10 ml buffer) and protein content was determined via BCA-Protein assay.
(2) Measurement of Binding Activity of Test Compounds to Human GIPR or GLP-1R
For orientation: Loss of bound radioactivity is the signal in a displacement assay; it reports binding, not function.

Data set [4] has as its target human GLP-1 receptor (hGLP-1R) (Homo sapiens, UniProt P43220). Description: In vitro cellular cAMP assay for GLP-1 receptor efficacy (HEK-293 cell line over-expressing receptor). Format: cell-based. As to conditions: HEK-293, 0.1% BSA.

human GLP-1 receptor (hGLP-1R), sequence (P43220 24-463): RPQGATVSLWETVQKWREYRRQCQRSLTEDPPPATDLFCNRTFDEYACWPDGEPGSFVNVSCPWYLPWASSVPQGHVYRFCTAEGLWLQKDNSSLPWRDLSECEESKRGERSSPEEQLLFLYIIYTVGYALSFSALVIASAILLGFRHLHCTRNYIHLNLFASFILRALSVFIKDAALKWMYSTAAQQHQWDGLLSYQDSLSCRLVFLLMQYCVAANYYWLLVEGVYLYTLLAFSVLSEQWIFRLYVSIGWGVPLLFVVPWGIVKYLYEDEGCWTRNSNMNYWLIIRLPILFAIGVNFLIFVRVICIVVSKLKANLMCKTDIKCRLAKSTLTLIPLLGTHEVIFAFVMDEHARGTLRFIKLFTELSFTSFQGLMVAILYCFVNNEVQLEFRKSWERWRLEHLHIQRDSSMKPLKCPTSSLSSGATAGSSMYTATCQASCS

As usually defined, the solubility is the concentration that dissolves in the medium under given conditions. One may read the EC50 as the concentration at which the effect is half-maximal. A word on the Emax: it is the size of the effect at its maximum, as opposed to the concentration needed. Broadly, the IC50 is the concentration that gives 50% inhibition. A lower IC50 goes with greater potency. As for `CC[C@H](C)[C@H](NC(=O)[C@H](CCCNC(=N)N)NC(=O)[C@H](CC(=O)O)NC(=O)[C@H](CCCCNC(=O)COCCOCCNC(=O)COCCOCCNC(=O)CC[C@H](NC(=O)CCCCCCCCCCCCCCCCC(=O)O)C(=O)O)NC(=O)C(C)(C)NC(=O)[C@@H](NC(=O)[C@H](CO)NC(=O)[C@H](CC(C)C)NC(=O)[C@H](CC(=O)O)NC(=O)[C@H](CO)NC(=O)[C@@H](NC(=O)[C@@](C)(CC)NC(=O)[C@@H](NC(=O)CNC(=O)[C@H](CCC(=O)O)NC(=O)C(C)(C)NC(=O)[C@@H](N)Cc1ccc(O)cc1)[C@@H](C)O)[C@@H](C)CC)[C@@H](C)CC)C(=O)N[C@@H](Cc1c[nH]cn1)C(=O)N[C@@H](CCC(N)=O)C(=O)NC(C)(C)C(=O)N[C@@H](CCC(=O)O)C(=O)N[C@@H](Cc1ccccc1)C(=O)N[C@H](C(=O)N[C@@H](CCC(=O)O)C(=O)N[C@@H](Cc1c[nH]c2ccccc12)C(=O)N[C@@H](CC(C)C)C(=O)N[C@@H](CC(C)C)C(=O)N[C@@H](C)C(=O)N[C@@H](CCC(N)=O)C(=O)NCC(=O)N1CCC[C@H]1C(=O)N[C@@H](CO)C(=O)N[C@@H](CO)C(=O)NCC(=O)N[C@@H](C)C(=O)N1CCC[C@H]1C(=O)N1CCC[C@H]1C(=O)N1CCC[C@H]1C(=O)N[C@@H](CO)C(N)=O)[C@@H](C)CC` [SEQ ID NO: 23, H2N-Y-Aib-E-G-T-Iva-I-S-D-L-S-I-Aib-K[{AEEA}2-gGlu-C18OH]-D-R-I-H-Q-Aib-E-F-I-E-W-L-L-A-Q-G-P-S-S-G-A-P-P-P-S-NH2] (H-Y[Aib]EGT[dIva]ISDLSI[Aib]K([AEEA-AEEA-γGlu-C18 diacid])DRIHQ[Aib]EFIEWLLAQGPSSGAPPPS-NH2), in data set [1] (pH 7.4, Soluble amount), the solubility amounted to 6.5 mg/mL (≈ 1320 µM). Further, in data set [2], the EC50 stood at 0.2 nM and the Emax was 91%. The compound further showed an IC50 in data set [3] of 0.2 nM. Besides, the half-maximal effective concentration (EC50) in data set [4] was more than 10 nM.

In data set [1] (24 h, pH 7.4), `CC[C@H](C)[C@H](NC(=O)[C@H](Cc1ccccc1)NC(=O)[C@H](CCC(=O)O)NC(=O)[C@H](CCC(=O)O)NC(=O)[C@H](CCC(N)=O)NC(=O)[C@H](Cc1c[nH]cn1)NC(=O)[C@@H](NC(=O)[C@H](CCCNC(=N)N)NC(=O)[C@H](CC(=O)O)NC(=O)[C@H](CCCCNC(=O)COCCOCCNC(=O)COCCOCCNC(=O)CC[C@H](NC(=O)CCCCCCCCCCCCCCCCC(=O)O)C(=O)O)NC(=O)C(C)(C)NC(=O)[C@@H](NC(=O)[C@H](CO)NC(=O)[C@H](CC(C)C)NC(=O)[C@H](CC(=O)O)NC(=O)[C@H](CO)NC(=O)[C@@H](NC(=O)[C@H](Cc1ccccc1)NC(=O)[C@@H](NC(=O)CNC(=O)[C@H](CCC(=O)O)NC(=O)C(C)(C)NC(=O)[C@@H](N)Cc1ccc(O)cc1)[C@@H](C)O)[C@@H](C)CC)[C@@H](C)CC)[C@@H](C)CC)C(=O)N[C@@H](CCC(=O)O)C(=O)N[C@@H](Cc1c[nH]c2ccccc12)C(=O)N[C@@H](CC(C)C)C(=O)N[C@@H](CC(C)C)C(=O)N[C@@H](C)C(=O)N[C@@H](CCC(N)=O)C(=O)N[C@@H](CCC(=O)O)C(=O)N1CCC[C@H]1C(=O)N[C@@H](CO)C(=O)N[C@@H](CO)C(=O)NCC(=O)N[C@@H](C)C(=O)N1CCC[C@H]1C(=O)N1CCC[C@H]1C(=O)N1CCC[C@H]1C(=O)N[C@@H](CO)C(=O)O` [SEQ ID NO: 28, H2N-Y-Aib-E-G-T-F-I-S-D-L-S-I-Aib-K[{AEEA}2-gGlu-C18OH]-DRIHQEEFIEWLLAQEPSSGAPPPS-OH] (H-Y[Aib]EGTFISDLSI[Aib]K([AEEA-AEEA-γGlu-C18 diacid])DRIHQEEFIEWLLAQEPSSGAPPPS-OH) yielded a Soluble amount of more than 9.0 mg/mL. In data set [1] (pH 7.4, Soluble amount), this compound yielded a solubility at 24 h of more than 9.4 mg/mL. The EC50 was 0.5 nM in data set [2] and more than 10 nM in data set [4]. Moreover, the maximal response (Emax) in data set [2] amounted to 103%. The same compound had an IC50 in data set [3] of 0.8 nM.

Take `CC[C@H](C)[C@H](NC(=O)[C@H](Cc1ccccc1)NC(=O)[C@H](CCC(=O)O)NC(=O)C(C)(C)NC(=O)[C@H](CCC(N)=O)NC(=O)[C@H](CCCCNC(=O)COCCOCCNC(=O)COCCOCCNC(=O)CC[C@H](NC(=O)CCCCCCCCCCCCCCCCC(=O)O)C(=O)O)NC(=O)[C@H](CCC(N)=O)NC(=O)[C@H](CCC(=O)O)NC(=O)[C@H](CCC(=O)O)NC(=O)[C@H](CC(C)C)NC(=O)C(C)(C)NC(=O)[C@@H](NC(=O)[C@H](CO)NC(=O)[C@H](CC(C)C)NC(=O)[C@H](CC(=O)O)NC(=O)[C@H](CO)NC(=O)[C@@H](NC(=O)[C@H](Cc1ccccc1)NC(=O)[C@@H](NC(=O)CNC(=O)[C@H](CCC(=O)O)NC(=O)C(C)(C)NC(=O)[C@@H](N)Cc1ccc(O)cc1)[C@@H](C)O)[C@@H](C)CC)[C@@H](C)CC)C(=O)N[C@@H](CCC(=O)O)C(=O)N[C@@H](Cc1c[nH]c2ccccc12)C(=O)N[C@@H](CC(C)C)C(=O)N[C@@H](CC(C)C)C(=O)N[C@@H](C)C(=O)N[C@@H](CCC(N)=O)C(=O)NCC(=O)N1CCC[C@H]1C(=O)N[C@@H](CO)C(=O)N[C@@H](CO)C(=O)NCC(=O)N[C@@H](C)C(=O)N1CCC[C@H]1C(=O)N1CCC[C@H]1C(=O)N1CCC[C@H]1C(=O)N[C@@H](CO)C(N)=O` [SEQ ID NO: 36, H2N-Y-Aib-E-G-T-F-I-S-D-L-S-I-Aib-L-E-E-Q-K[{AEEA}2-gGlu-C18OH]-Q-Aib-E-F-I-E-W-L-L-A-Q-G-P-S-S-G-A-P-P-P-S-NH2] (H-Y[Aib]EGTFISDLSI[Aib]LEEQK([AEEA-AEEA-γGlu-C18 diacid])Q[Aib]EFIEWLLAQGPSSGAPPPS-NH2): the solubility at 24 h in data set [1] (pH 7.4, Soluble amount) is more than 10.7 mg/mL. Moreover, in data set [2], the EC50 was 0.3 nM and the Emax turned out to be 104%. In data set [3], the IC50 was determined as 0.2 nM. For the same compound, the EC50 in data set [4] is more than 10 nM.
